Test results published in patent publication US7291738B2 (dated 2007).

melting point [°C] | SMILES
173 to 175 | Cc1ncccc1Oc1ccc(NC(=O)Nc2ccc3[nH]c4c(c3c2)CCN(C(=O)OC(C)(C)C)CC4)cn1
136 to 138 | Cc1ncccc1Oc1ccc(NC(=O)NCCc2ccccc2)cn1
205 to 207 | Cc1ncccc1Oc1ccc(NC(=O)Nc2ccc3[nH]c4c(c3c2)CCNCC4)cn1
159 to 160 | Cc1ncccc1Oc1ccc(NC(=O)N2CCc3c(n(C)c4ccccc34)CC2)cn1
